Assay results as given in patent US12281122B1, “PI3K inhibitors” (Cogent Biosciences, Inc., priority 2023, dated 2025).

Tests used:
[1] = tested on: T47D (PI3Kα-H1047R) cell line; assay: HTRF phospho-AKT(S473) cell assay in T47D cells; format: cell-based, human
Summary of the method: (§1)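 T47D: RPMI + 10% FBS + 0.2 units/mL insulin, top 5 μM. SKBR3: McCoy's 5A + 10% FBS, top 10 μM, 70 ng/ml PDGF-BB last 15 min. Both: 12-pt 1:3, 2 h, 37° C, max 0.5% DMSO; HTRF pAKT(S473); IC50.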

[2] = tested on: SKBR3 (PI3Kα-Wild Type) cell line; assay: HTRF phospho-AKT(S473) cell assay in SKBR3 cells; format: cell-based, human
Summary of the method: as §1

[3] = Homo sapiens; HTRF phospho-AKT(S473), T47D (PI3Kα-H1047R) cells, 2 hours compound incubation
[4] = Homo sapiens, SK-BR-3; HTRF phospho-AKT(S473), SKBR3 (PI3Kα-Wild Type) cells, 2 hours compound incubation, PDGF-BB stimulated
[5] = Homo sapiens; T47D (PI3Kα-H1047R) cells, HTRF phospho-AKT(S473), 2 hours compound incubation
[6] = Homo sapiens, SK-BR-3; SKBR3 (PI3Kα-Wild Type) cells, HTRF phospho-AKT(S473), 2 hours compound incubation, PDGF-BB stimulated

| Structure (SMILES) | IC50 [1, 3] [nM] | IC50 [2, 4] [nM] | IC50 [1, 5] [nM] | IC50 [2, 6] [nM] |
| --- | --- | --- | --- | --- |
| Cc1ccc(C2CCN(c3nc4c([C@@H](C)Nc5ccc(Cl)nc5C(=O)NS(C)(=O)=O)cc(C)cc4c(=O)n3C)CC2)nc1 [Compound 403, (R)-6-chloro-3-((1-(3,6-dimethyl-2-(4-(5-methylpyridin-2-yl)piperidin-1-yl)-4-oxo-3,4-dihydroquinazolin-8-yl)ethyl)amino)-N-(methylsulfonyl) picolinamide] |  |  | < 250 | ≥ 5000 |
| COc1nccc(N2C[C@@H]3C[C@H]2CN3c2nc3c([C@@H](C)Nc4ccc(Cl)nc4C(=O)NS(C)(=O)=O)cc(C)cc3c(=O)n2C)n1 [Compound 581, 6-chloro-3-(((R)-1-(2-((1S,4S)-5-(2-methoxypyrimidin-4-yl)-2,5-diazabicyclo [2.2.1]heptan-2-yl)-3,6-dimethyl-4-oxo-3,4-dihydroquinazolin-8-yl)ethyl)amino)-N-(methylsulfonyl) picolinamide] | 250 to 500 | ≥ 5000 |  |  |
| Cc1cc([C@@H](C)Nc2ccc(Cl)nc2C(=O)NS(C)(=O)=O)c2nc(N3CCC(c4cnn(C)c4)CC3)n(C)c(=O)c2c1 [Compound 181, (R)-6-chloro-3-((1-(3,6-dimethyl-2-(4-(1-methyl-1H-pyrazol-4-yl)piperidin-1-yl)-4-oxo-3,4-dihydroquinazolin-8-yl)ethyl)amino)-N-(methylsulfonyl) picolinamide] |  |  | < 250 | 1000 to 5000 |
| Cc1cc([C@@H](C)Nc2ccc(Cl)nc2C(=O)NS(C)(=O)=O)c2nc(N3CC[C@H](Oc4ncc(F)cn4)C3)n(C)c(=O)c2c1 [Compound 537, 6-chloro-3-(((R)-1-(2-((S)-3-((5-fluoropyrimidin-2-yl)oxy)pyrrolidin-1-yl)-3,6-dimethyl-4-oxo-3,4-dihydroquinazolin-8-yl)ethyl)amino)-N-(methylsulfonyl) picolinamide] | 250 to 500 | ≥ 5000 |  |  |
| Cc1cc([C@@H](C)Nc2ccc(Cl)nc2C(=O)NS(C)(=O)=O)c2nc(N3CCC(c4nnc(C)o4)CC3)n(C)c(=O)c2c1 [Compound 557, (R)-6-chloro-3-((1-(3,6-dimethyl-2-(4-(5-methyl-1,3,4-oxadiazol-2-yl)piperidin-1-yl)-4-oxo-3,4-dihydroquinazolin-8-yl)ethyl)amino)-N-(methylsulfonyl) picolinamide] | 250 to 500 | 1000 to 5000 |  |  |
| Cc1cc([C@@H](C)Nc2ccc(Cl)nc2C(=O)NS(C)(=O)=O)c2nc(N3CCC(c4ccnn4C4CC4)CC3)n(C)c(=O)c2c1 [Compound 501, (R)-6-chloro-3-((1-(2-(4-(1-cyclopropyl-1H-pyrazol-5-yl)piperidin-1-yl)-3,6-dimethyl-4-oxo-3,4-dihydroquinazolin-8-yl)ethyl)amino)-N-(methylsulfonyl) picolinamide] | < 250 | 1000 to 5000 |  |  |
| Cc1cc([C@@H](C)Nc2ccc(Cl)nc2C(=O)NS(C)(=O)=O)c2nc(N3CCC(c4ccc(C)nn4)CC3)n(C)c(=O)c2c1 [Compound 264, (R)-6-chloro-3-((1-(3,6-dimethyl-2-(4-(6-methylpyridazin-3-yl)piperidin-1-yl)-4-oxo-3,4-dihydroquinazolin-8-yl)ethyl)amino)-N-(methylsulfonyl) picolinamide] |  |  | < 250 | 1000 to 5000 |
| Cc1cc([C@@H](C)Nc2ccc(Cl)nc2C(=O)NS(C)(=O)=O)c2nc(N3C[C@@H]4[C@H](C3)[C@H]4c3cc(C)n(C4CC4)n3)n(C)c(=O)c2c1 [Compound 567, 6-chloro-3-(((R)-1-(2-((1R,5S,6R)-6-(1-cyclopropyl-5-methyl-1H-pyrazol-3-yl)-3-azabicyclo[3.1.0]hexan-3-yl)-3,6-dimethyl-4-oxo-3,4-dihydroquinazolin-8-yl)ethyl)amino)-N-(methylsulfonyl) picolinamide] | 250 to 500 | ≥ 5000 |  |  |
| Cc1cc([C@@H](C)Nc2ccc(Cl)nc2C(=O)NS(C)(=O)=O)c2nc(N3CCC(C)(c4ccn(C)n4)CC3)n(C)c(=O)c2c1 [Compound 301, (R)-6-chloro-3-((1-(3,6-dimethyl-2-(4-methyl-4-(1-methyl-1H-pyrazol-3-yl)piperidin-1-yl)-4-oxo-3,4-dihydroquinazolin-8-yl)ethyl)amino)-N-(methylsulfonyl) picolinamide] |  |  | < 250 | ≥ 5000 |
| Cc1cnc([C@@H]2CCCN(c3nc4c([C@@H](C)Nc5ccc(Cl)nc5C(=O)NS(C)(=O)=O)cc(C)cc4c(=O)n3C)C2)nc1 (relative stereo) [Compound 625, 6-chloro-3-(((R)-1-(3,6-dimethyl-2-((R*)-3-(5-methylpyrimidin-2-yl)piperidin-1-yl)-4-oxo-3,4-dihydroquinazolin-8-yl)ethyl)amino)-N-(methylsulfonyl) picolinamide] | 250 to 500 | ≥ 5000 |  |  |
| CC(=O)N1CCC2(CC1)CCN(c1nc3c([C@@H](C)Nc4ccc(Cl)nc4C(=O)NS(C)(=O)=O)cc(C)cc3c(=O)n1C)CC2 [Compound 280, (R)-3-((1-(2-(9-acetyl-3,9-diazaspiro[5.5]undecan-3-yl)-3,6-dimethyl-4-oxo-3,4-dihydroquinazolin-8-yl)ethyl)amino)-6-chloro-N-(methylsulfonyl) picolinamide] |  |  | < 250 | 1000 to 5000 |
| Cc1cc([C@@H](C)Nc2ccc(Cl)nc2C(=O)NS(C)(=O)=O)c2nc(N3CCC(c4cc(N)n(C)n4)CC3)n(C)c(=O)c2c1 [Compound 338, (R)-3-((1-(2-(4-(5-amino-1-methyl-1H-pyrazol-3-yl)piperidin-1-yl)-3,6-dimethyl-4-oxo-3,4-dihydroquinazolin-8-yl)ethyl)amino)-6-chloro-N-(methylsulfonyl) picolinamide] |  |  | < 250 | 1000 to 5000 |
| Cc1cc([C@@H](C)Nc2ccc(Cl)nc2C(=O)NS(C)(=O)=O)c2nc(N3C[C@@H]4C(c5ncc(Cl)cn5)[C@@H]4C3)n(C)c(=O)c2c1 (stereo partly drawn) [Compound 535, 6-chloro-3-(((1R)-1-(2-((1R,5S)-6-(5-chloropyrimidin-2-yl)-3-azabicyclo[3.1.0]hexan-3-yl)-3,6-dimethyl-4-oxo-3,4-dihydroquinazolin-8-yl)ethyl)amino)-N-(methylsulfonyl) picolinamide] | 250 to 500 | ≥ 5000 |  |  |
| Cc1cc([C@@H](C)Nc2ccc(Cl)nc2C(=O)NS(C)(=O)=O)c2nc(N3CC[C@H](c4cnc(C)c(C#N)c4)C3)n(C)c(=O)c2c1 (single isomer, unassigned) [Compound 655, 6-chloro-3-(((R)-1-(2-((R*)-3-(5-cyano-6-methylpyridin-3-yl)pyrrolidin-1-yl)-3,6-dimethyl-4-oxo-3,4-dihydroquinazolin-8-yl)ethyl)amino)-N-(methylsulfonyl) picolinamide] | 1000 to 5000 | ≥ 5000 |  |  |

Results, then the compound that gave them:

| IC50 [1, 3] [nM] | IC50 [2, 4] [nM] | IC50 [1, 5] [nM] | IC50 [2, 6] [nM] | Structure (SMILES) |
| --- | --- | --- | --- | --- |
| 250 to 500 | 1000 to 5000 |  |  | Cc1cc([C@@H](C)Nc2ccc(Cl)nc2C(=O)NS(C)(=O)=O)c2nc(N3C[C@@H]4[C@H](C3)[C@H]4n3ccccc3=O)n(C)c(=O)c2c1 [Compound 755, 6-chloro-3-(((R)-1-(3,6-dimethyl-4-oxo-2-((1R,5S,6S)-6-(2-oxopyridin-1(2H)-yl)-3-azabicyclo[3.1.0]hexan-3-yl)-3,4-dihydroquinazolin-8-yl)ethyl)amino)-N-(methylsulfonyl) picolinamide] |
| < 250 | 1000 to 5000 |  |  | Cc1ccn(C2CCN(c3nc4c([C@@H](C)Nc5ccc(Cl)nc5C(=O)NS(C)(=O)=O)cc(C)cc4c(=O)n3C)CC2)c(=O)c1 [Compound 753, (R)-6-chloro-3-((1-(3,6-dimethyl-2-(4-(4-methyl-2-oxopyridin-1(2H)-yl)piperidin-1-yl)-4-oxo-3,4-dihydroquinazolin-8-yl)ethyl)amino)-N-(methylsulfonyl) picolinamide] |
| 250 to 500 | ≥ 5000 |  |  | Cc1cc([C@@H](C)Nc2ccc(Cl)nc2C(=O)NS(C)(=O)=O)c2nc([C@H]3[C@@H]4CN(c5nccc(C)n5)C[C@@H]43)n(C)c(=O)c2c1 [Compound 826, 6-chloro-3-(((R)-1-(3,6-dimethyl-2-((1R,5S,6r)-3-(4-methylpyrimidin-2-yl)-3-azabicyclo[3.1.0]hexan-6-yl)-4-oxo-3,4-dihydroquinazolin-8-yl)ethyl)amino)-N-(methylsulfonyl) picolinamide] |
| 250 to 500 | ≥ 5000 |  |  | COc1cc(N2CCN(c3nc4c([C@@H](C)Nc5ccc(Cl)nc5C(=O)NS(C)(=O)=O)cc(C)cc4c(=O)n3C)CC2)nc(C)n1 [Compound 718, (R)-6-chloro-3-((1-(2-(4-(6-methoxy-2-methylpyrimidin-4-yl)piperazin-1-yl)-3,6-dimethyl-4-oxo-3,4-dihydroquinazolin-8-yl)ethyl)amino)-N-(methylsulfonyl) picolinamide] |
| 250 to 500 | 1000 to 5000 |  |  | Cc1cc([C@@H](C)Nc2ccc(Cl)nc2C(=O)NS(C)(=O)=O)c2nc(N3Cc4cn(-c5ncc(C#N)cc5C)nc4C3)n(C)c(=O)c2c1 [Compound 698, (R)-6-chloro-3-((1-(2-(2-(5-cyano-3-methylpyridin-2-yl)-2,6-dihydropyrrolo[3,4-c]pyrazol-5(4H)-yl)-3,6-dimethyl-4-oxo-3,4-dihydroquinazolin-8-yl)ethyl)amino)-N-(methylsulfonyl) picolinamide] |
| 250 to 500 | ≥ 5000 |  |  | Cc1cc([C@@H](C)Nc2ccc(Cl)nc2C(=O)NS(C)(=O)=O)c2nc(N3CCC[C@@H](c4ccn(C(F)F)n4)C3)n(C)c(=O)c2c1 (relative stereo) [Compound 768, 6-chloro-3-(((R)-1-(2-((R*)-3-(1-(difluoromethyl)-1H-pyrazol-3-yl)piperidin-1-yl)-3,6-dimethyl-4-oxo-3,4-dihydroquinazolin-8-yl)ethyl)amino)-N-(methylsulfonyl) picolinamide] |
